According to US10913772B2, “Peptide for preventing or treating inflammatory diseases and use thereof” (KINE SCIENCES Co., Ltd., priority 2016, dated 2021):
Where “and” joins values, the source holds several entries; their conditions need not be identical. Equal entries are not always repeated. No end group written: not given here.

What was measured:
[1] = Evaluation of toxicity: mortality and change in body weight of mouse; type: in vivo; conditions: for Body weight: i.p., individual mice
Method: In Example 3, in order to confirm the toxicity of the peptide of the present invention, the RGD dimer was intraperitoneally administered to mouse at various concentrations (0.1 μmole, 1 μmole, and 10 μmole), and then the mortality and a change in body weight of each mouse were measured. On the other hand, as a control, a non-administration group (Normal) and a PBS-treated group (PBS) were used.

[2] = test system: collagen-induced arthritis (CIA) mouse model; experiment: Arthritis progression index in collagen-induced arthritis mouse model; type: in vivo, mouse (DBA/1J); set-up: key: 0-4 per leg, summed over four legs (0-16), mean of two observers; conditions: Table 3, methotrexate 1 mg/kg
Method: In Example 2, using a collagen-induced arthritis mouse model in the following document, a therapeutic effect of a RGD dimer for a representative inflammatory disease, rheumatoid arthritis was confirmed (Nat Protoc. 2007; 2(5):1269-75.).
A collagen-induced arthritis (CIA) mouse model was prepared as follows, as an autoimmune disease-based arthritis model with characteristics similar to human rheumatoid arthritis.
First, a bovine type II collagen (Chondrex Corporation, USA) and a Freund's complete adjuvant (Chondrex Corporation, USA) were mixed at a ratio of 1:1 and emulsified, and then 50 μl of the emulsified collagen solution was injected intradermally into the tail of a 6-week-old DBA/1J mouse to induce primary immunization. At two weeks after the primary immunization, the bovine type II collagen and the Freund's complete adjuvant were mixed at a ratio of 1:1 and emulsified, and then 50 μl of the emulsified collagen solution was injected intradermally into the tail of the mouse again to induce secondary immunization (boosting).
After the secondary immunization, from the next day, the peptide of the present invention ([…] (1 μmole)) was administered intraperitoneally three times a week and a PBS-treated group was used as a control (Vehicle control). The preparation process of the collagen-induced arthritis mouse model and the administration time of the peptide were schematically illustrated in FIG. 1.
In order to investigate the development of arthritis progression according to the peptide treatment of the present invention, the deepening degree of arthritis with time was measured by evaluating an arthritis progression index. Two observers who were unaware of the specific experimental conditions evaluated progression of arthritis three times a week. In this case, the arthritis progression index was evaluated by 0 to 4 scores per leg according to an arthritis progression evaluation standard by Rossoliniec and the like in Table 1 below to be represented by a total of 0 to 16 scores (a sum of four legs), and thereafter, two observers calculated an average value of the evaluated results to digitize the severity of arthritis.
In order to confirm the efficacy for each treatment concentration of the peptide according to the present invention, by using the same method as Example 2-2, an arthritis therapeutic effect according to the peptide treatment at various concentrations (0.1 μmole, 1 μmole, and 10 μmole) was evaluated by the arthritis progression index.
Methotrexate (MTX), one of drugs which are used as arthritis therapeutic agents in a current clinical practice, had excellent anti-inflammatory and arthritis therapeutic effects as an immunodepressant, but may have side effects such as toxicity to normal cells, oral ulcer, alopecia, interstitial pneumonia, bone marrow suppression, and the like. As a result, the methotrexate is known as a drug that needs to pay close attention after medication with sufficient medication counseling. As a result, the arthritis therapeutic effect according to the peptide treatment at various concentrations was compared with that of the case of treating methotrexate (1 mg/kg).

## RDGRDG [RDG dimer, RDGRDG]
[1]; 0.1 μmole, 1 μmole or 10 μmole, intraperitoneally
  mortality of the mouse: not observed
[1]; 10 umole, day 17
  Body weight: 23.74 g and 20.75 g and 18.48 g
[1]; 10 umole, day 21
  Body weight: 23.8 g and 21.9 g and 20.5 g
[1]; 10 umole, day 24
  Body weight: 24.2 g and 22 g and 20.1 g
[1]; 10 umole, day 27
  Body weight: 23.8 g and 21.6 g and 20.5 g
[1]; 10 umole, day 31
  Body weight: 23.9 g and 22 g
[1]; 10 umole, day 34
  Body weight: 24.8 g and 22.3 g
[1]; all the concentrations (0.1, 1 and 10 μmole), intraperitoneally
  difference in body weight from the control: did not have a large difference
[1]; first group printed 1 umole, day 17
  Body weight: 21.65 g and 24.51 g and 18.25 g and 21.88 g and 22.3 g and 21.96 g and 18.84 g
[1]; first group printed 1 umole, day 21
  Body weight: 21.8 g and 24.5 g and 18.4 g and 21.5 g and 22 g (2×) and 19.6 g
[1]; first group printed 1 umole, day 24
  Body weight: 21.8 g and 24.9 g and 18.2 g and 22.4 g and 22.8 g and 21.3 g and 20.6 g
[1]; first group printed 1 umole, day 27
  Body weight: 22.2 g and 25 g and 18.1 g and 22.7 g and 22.9 g and 21.3 g and 20.5 g
[1]; first group printed 1 umole, day 31
  Body weight: 22.4 g and 25.3 g and 18.8 g and 22.3 g and 22.6 g and 21.2 g and 20.7 g
[1]; first group printed 1 umole, day 34
  Body weight: 23.1 g (2×) and 26.1 g and 19 g and 23 g and 22.6 g and 21.8 g
[1]; second group printed 1 umole, day 17
  Body weight: 22.7 g (2×) and 21.3 g and 18.96 g and 20.63 g and 20.61 g and 21.07 g
[1]; second group printed 1 umole, day 21
  Body weight: 22.3 g and 22.4 g and 19.6 g and 20.6 g and 21.1 g and 21.3 g and 22.6 g
[1]; second group printed 1 umole, day 24
  Body weight: 23.9 g and 22.2 g and 20 g and 20.8 g and 21.4 g and 21.7 g and 23.2 g
[1]; second group printed 1 umole, day 27
  Body weight: 24.4 g and 22.3 g and 20.1 g and 21.2 g and 21.3 g and 21.7 g and 23.3 g
[1]; second group printed 1 umole, day 31
  Body weight: 22.6 g and 22.7 g and 20.2 g and 20.1 g and 21.3 g and 22.2 g and 23.4 g
[1]; second group printed 1 umole, day 34
  Body weight: 23 g and 23.6 g and 20.5 g and 18.6 g and 20.6 g and 22.5 g and 24.2 g

## CN(Cc1cnc2nc(N)nc(N)c2n1)c1ccc(C(=O)N[C@@H](CCC(=O)O)C(=O)O)cc1 [MTX, methotrexate]
[2]; day 20
  arthritis progression index: 0.8
[2]; day 22
  arthritis progression index: 0.8
[2]; day 24
  arthritis progression index: 1.0
[2]; day 27
  arthritis progression index: 1.2
[2]; day 29
  arthritis progression index: 1.4
[2]; day 31
  arthritis progression index: 1.8
[2]; day 34
  arthritis progression index: 1.8
[2]; day 36
  arthritis progression index: 3.2
